Data reported in patent US6747061B2, “N-substituted dithiocarbamates for the treatment of biological disorders” (AtheroGenics, Inc., priority 2000, dated 2004).
Structures can show the parent of a compound that is named as a salt. Where two headings read alike, the source gives them in different places.

Tests used:
VCAM-1 = VCAM-1 assay: enzyme immunoassay of TNF-α induced VCAM-1 expression in endothelial cells; assay type: cell-based, Human
Protocol: The VCAM-1 assay is an enzyme immunoassay to detect tumor necrosis factor alpha (TNF-α) induced Vascular Adhesion Molecule (VCAM-1) expression in endothelial cells.
Human endothelial cells (HAEC) were purchased from Clonetics and maintained in EGM media (Clonetics) supplemented with 5% fetal bovine serum (FBS). In a typical experiment, cells were seeded in 96-well plates. The next day cells were stimulated with TNF-α (1 ng/ml) purchased from Boehringer Mannheim in the presence or absence of compounds dissolved in dimethylsulphoxide (DMSO). To establish a dose curve for each compound, four concentrations in 2 fold increments were used. Cells were exposed to TNF-α and compounds for approximately 16 hours. The next day, cells were examined under microscope to score for visual signs of toxicity.
Media was discarded and the cells were washed once with Hanks buffered saline solution (HBSS)/phosphate buffered solution (PBS) 91:1). Primary mouse monoclonal antibody against VCAM-1 purchased from Southern Biotechnology Associates (0.25 μg/ml in HBSS/PBS+5% FBS) was added and incubated at 37° C. for 30 minutes. Cells were washed with HBSS/PBS three times, and secondary antibody horse radish peroxidase (HRP)-conjugated goat anti-mouse IgG purchased from Southern Biotechnology Associates (1:500 in HBSS/PBS+5% FBS) was added and incubated at 37° C. for 30 minutes. Cells were washed with HBSS/PBS four times and peroxidase substrate 3.3′,5,5′-tetramethyl-benzidine (TMB) was added and incubated in the dark at room temperature until there was adequate blue color development. The length of incubation time was typically 5-15 minutes. 2 N sulfuric acid was added to stop the color development and the data was collected by reading the absorbance at O.D. 450 nm. The result was expressed as the percentage of control sample (cells stimulated by TNF without any compound).

H1299 = experiment: Proliferation of H1299 cells (FIG. 1, CellTiter96); assay type: cell-based; settings: 10 μM dithiocarbamate + 0.1 μM 5-FU, or 0.1 μM 5-FU alone, 24-72 hours
Protocol: (§1) All primary cells and cell lines were commercially available. The transformed cell lines were grown in Dulbecco's Modified Eagle Media supplemented with 2 mM L-glutamine, 50 I.U. penicillin, 50 μg/ml streptomycin, nonessential amino acids and 10% heat-inactivated fetal bovine serum. HASM, HAEC and NHBE cells were cultured exactly as described by the commercial provider (Clonetics, San Diego, Calif.). All cell lines were grown at 37° C. in 5% CO2, with the media being changed every 48 hours.
(§2) For the experimental assays, cells were plated in 96-well plates and grown until ˜35% confluency was achieved. For the transformed cell lines, cells were plated at low density and grown for 72 hours prior to being stimulated, whereas the non-transformed cells were plated at a higher density and grown for 24 hours prior to being stimulated.
(§3) Cells were treated with dithiocarbamate (0.1-100 μM)±5FU (0.01-10 μM) and retreated after 48 hours when media was changed. Cell growth was assessed using the CellTiter96® assay system from Promega (Madison, Wis.). […]
(§4) Statistical significance was assessed using an ANOVA with the appropriate post-hoc analysis as well as Students t-tests. *=p<0.05 when compared to control-treated (DMSO) cells. #=p<0.05 when compared to 5FU-treated cells.

HeLa = experiment: Proliferation of HeLa cells (FIG. 1, CellTiter96); assay type: cell-based; settings: 10 μM dithiocarbamate + 0.1 μM 5-FU, or 0.1 μM 5-FU alone, 24-72 hours
Protocol: as §1, §2, §3, §4

[1] = system: DLD-1 colorectal carcinoma cells; experiment: Anti-proliferative effect on DLD-1 cells (CellTiter96); assay type: cell-based; settings: Homo sapiens, 5-FU alone 1 μM, read-out: proliferation, percent of control
Protocol: as §1, §2
(§5) Cells were treated with dithiocarbamate (0.1-100 μM)±5FU (0.01-10 μM) and retreated after 48 hours when media was changed. Cell growth was assessed using the CellTiter96® assay system from Promega (Madison, Wis.). Each experimental condition was performed in triplicate or quadruplicate, with the number of experiments for each cell line being three.
as §4

NHBE = experiment: Proliferation of non-transformed NHBE cells (FIG. 1, CellTiter96); assay type: cell-based, Human; settings: 10 μM dithiocarbamate + 0.1 μM 5-FU, or 0.1 μM 5-FU alone, 24-72 hours
Protocol: as §1, §2, §3, §4

[2] = system: SNU-C5 colorectal carcinoma cells; experiment: Anti-proliferative effect on SNU-C5 cells (CellTiter96); assay type: cell-based; settings: 5-FU alone 1 μM, read-out: proliferation, percent of control
Protocol: as §1, §2, §5, §4

Saos-2 = experiment: Proliferation of Saos-2 cells (FIG. 1, CellTiter96); assay type: cell-based; settings: 10 μM dithiocarbamate + 0.1 μM 5-FU, or 0.1 μM 5-FU alone, 24-72 hours
Protocol: as §1, §2, §3, §4

T98G = experiment: Proliferation of T98G cells (FIG. 1, CellTiter96); assay type: cell-based; settings: 10 μM dithiocarbamate + 0.1 μM 5-FU, or 0.1 μM 5-FU alone, 24-72 hours
Protocol: as §1, §2, §3, §4

HASM = experiment: Proliferation of non-transformed HASM cells (FIG. 1, CellTiter96); assay type: cell-based, Human; settings: 10 μM dithiocarbamate + 0.1 μM 5-FU, or 0.1 μM 5-FU alone, 24-72 hours
Protocol: as §1, §2, §3, §4

HAEC = experiment: Proliferation of non-transformed HAEC cells (FIG. 1, CellTiter96); assay type: cell-based, Human; settings: 10 μM dithiocarbamate + 0.1 μM 5-FU, or 0.1 μM 5-FU alone, 24-72 hours
Protocol: as §1, §2, §3, §4

MCF-7 = experiment: Proliferation of MCF-7 cells (FIG. 1, CellTiter96); assay type: cell-based; settings: 10 μM dithiocarbamate + 0.1 μM 5-FU, or 0.1 μM 5-FU alone, 24-72 hours
Protocol: as §1, §2, §3, §4

[3] = Homo sapiens, Endothelial cell, HAEC, TNF-α 1 ng/ml, approximately 16 hours, read-out: VCAM-1 IC50
[4] = Homo sapiens, Endothelial cell, 16 h, read-out: VCAM-1 IC50 (μM)
[5] = HAEC, TNF-α 1 ng/ml, approximately 16 hours, read-out: VCAM-1 IC50

SMILES	IC50 (VCAM-1; [3])	other results
COC(=O)CCSC(=S)NCc1ccco1 [3-(Furan-2-ylmethylthiocarbamoyl-sulfanyl)propionic acid methyl ester]		IC50 (VCAM-1; [4]): 6 µM
NC(CSC(=S)NCc1ccccc1)C(=O)O (stereo not shown) [(2-Amino-3-benzylthiocarbamoylsulfanyl)propionic acid]		IC50 (VCAM-1; [5]): 7 µM
CCOC(=O)CCCNC(=S)SCC1CCCO1 (stereo not shown) [4-(Tetrahydrofuran-2-ylmethylsulfanyllthio-carbonylamino)butyric acid ethyl ester]		IC50 (VCAM-1; [5]): 5 µM
S=C(NCc1cccnc1)SCc1cc(Cl)sc1Cl [(Pyridin-3-ylmethyl)dithiocarbamic acid 2,5-dichloro-thiophen-3-ylmethyl ester]	1.5 µM	
O=c1[nH]cc(F)c(=O)[nH]1 [5-FU, 5-fluorouracil]		inhibition of proliferation (H1299): no significant inhibition of proliferation; inhibition of proliferation (HeLa): no significant inhibition of proliferation; activity at 1 µM ([1]; 24 HOURS): 90.8%; activity at 1 µM ([1]; 48 HOURS): 85.8%; activity at 1 µM ([1]; 72 HOURS): 113%; inhibition of proliferation (NHBE): no significant inhibition of proliferation; activity at 1 µM ([2]; 24 HOURS): 109%; activity at 1 µM ([2]; 48 HOURS): 85.5%; activity at 1 µM ([2]; 72 HOURS): 86.1%; inhibition of proliferation (Saos-2): no significant inhibition of proliferation; inhibition of proliferation (T98G): no significant inhibition of proliferation; inhibition of proliferation (HASM): no significant inhibition of proliferation; inhibition of proliferation (HAEC): no significant inhibition of proliferation; inhibition of proliferation (MCF-7): no significant inhibition of proliferation
CC(C)CNC(=S)SCc1ccc(Cl)cc1Cl [Isobutyldithiocarbamic acid 2,4-dichlorobenzyl ester]		IC50 (VCAM-1; [4]): 32 µM
C=CCNC(=S)SCCN [Allyldithiocarbamic acid 2-aminoethyl ester hydrochloride]	12 µM	
CNC(=S)Sc1ccc(F)cc1F [Methyldithiocarbamic acid 2,4-difluorophenyl ester]	18 µM	
CCCCCCCCCCCCSC(=S)NCCc1ccccc1 [Phenethyldithiocarbamic acid dodecyl ester]	30 µM	
CSC(=S)NCC1CCCO1 (stereo not shown) [III: Y′=CH3, (Tetrahydrofuran-2-ylmethyl)dithiocarbamic acid methyl ester]	6.5 µM	
COC(=O)CCCSC(=S)NCCc1cc2ccccc2[nH]1 [4-[2-(1H-Indol-2-yl)ethylthiocarbamoyl-sulfanyl]butyric acid methyl ester]		IC50 (VCAM-1; [4]): 5 µM
COCCCNC(=S)Sc1ccc(Cl)cc1 [(3-Methoxypropyl)dithiocarbamic acid 4-chlorophenyl ester]	6 µM	
COc1cccc(CNC(=S)SCC(=O)C(C)(C)C)c1 [(3-Methoxybenzyl)dithiocarbamic acid 3,3-dimethyl-2-oxo-butyl ester]	2 µM	
S=C(NCc1ccc(Cl)cc1Cl)SCc1ccc(Cl)cc1Cl [(2,4-dichlorobenzyl)dithiocarbamic acid 2,4-dichlorobenzyl ester]		IC50 (VCAM-1; [4]): 8 µM

Now from value to compound, other results behind:

IC50 (VCAM-1; [3])	SMILES	other results
40 µM	COC(=O)CCCSC(=S)NCC1CCCCC1 [4-(Cyclohexylmethylthiocarbamoylsulfanyl)butyric acid methyl ester]	
3 µM	COC(=O)CCCSC(=S)NC[C@H]1CCCO1 [4-((R)-Tetrahydrofuran-2-ylmethylthiocarbamoyl-sulfanyl)butyric acid methyl ester]	
7 µM	O=C(O)CCCSC(=S)NCC1CCCO1 (stereo not shown) [III: Y′=(CH2)3C(O)OH, 4-(Tetrahydrofuran-2-ylmethylthiocarbamoylsulfanyl)-butyric acid]	
10 µM	COC(=O)CSC(=S)NCC1CCCO1 (stereo not shown) [III: Y′=CH2C(O)OCH3, (Tetrahydrofuran-2-ylmethylthiocarbamoylsulfanyl)acetic acid methyl ester]	
3 µM	COC(=O)CCSC(=S)NCC1CCCO1 (stereo not shown) [III: Y′=(CH2)2C(O)OCH3, 3-(Tetrahydrofuran-2-ylmethylthiocarbamoylsulfanyl)-propionic acid methyl ester]	
37 µM	CCN(CC)CCNC(=S)SCCC(=O)OC [3-(2-Diethylamino-ethylthiocarbamoylsulfanyl)-propionic acid methyl ester]	
30 µM	C=CCNC(=S)SCCCC(=O)OC [4-(Allylthiocarbamoylsulfanyl)butyric acid methyl ester]	
25 µM	COC(=O)CCCSC(=S)NCc1ccccc1 [4-(Benzylthiocarbamoylsulfanyl)butyric acid methyl ester]	
3 µM	N#CCCCSC(=S)NCC1CCCO1 (stereo not shown) [III: Y′=(CH2)3CN, (Tetrahydrofuran-2-ylmethyl)dithiocarbamic acid 3-cyano-propyl ester]	
3 µM	COC(=O)CCCSC(=S)NC[C@@H]1CCCO1 [4-((S)-Tetrahydrofuran-2-ylmethylthiocarbamoyl-sulfanyl)butyric acid methyl ester]	
50 µM	CCOC(=O)NC(=S)SCCC(=O)OC [3-(Ethoxycarbonylthiocarbamoylsulfanyl)propionic acid methyl ester]	
11 µM	COCCNC(=S)SCCCC(=O)OC [II: X=CH3O, Y′=C(O)OCH3, N=2, m=3, 4-(2-Methoxy-ethylthiocarbamoylsulfanyl)butyric acid methyl ester]	
14 µM	CNC(=S)SCCC(=O)OC [II: X=H, Y′=C(O)OCH3, N=1, m=2, 3-(Methylthiocarbamoylsulfanyl)propionic acid methyl ester]	
7 µM	CC(=O)CCCSC(=S)NCC1CCCO1 (stereo not shown) [III: Y′=(CH2)3C(O)CH3, (Tetrahydrofuran-2-ylmethyl)dithiocarbamic acid 4-oxo-pentyl ester]	
18 µM	COC(=O)CCCSC(=S)NCCC1CCCN1C (stereo not shown) [4-[2-(1-Methylpyrrolidin-2-yl)ethylthiocarbamoyl-sulfanyl]butyric acid methyl ester]	
11 µM	COC(=O)CCCCCSC(=S)NCC1CCCO1 (stereo not shown) [III: Y′=(CH2)5C(O)OCH2CH3, 6-(Tetrahydrofuran-2-ylmethylthiocarbamoyl-sulfanyl)hexanoic acid methyl ester]	
